Here are results for two compounds from US20260028384A1, “USE OF IL-2 VARIANT FOR TREATING KIDNEY TRANSPLANT REJECTION” (Visterra, Inc., priority 2024, published 2026).

Data set [1] relates to kidney allograft. As to the kind of experiment: Kidney allograft survival after transplant and discontinuation of treatment, rapamycin discontinued on Day 30 (Example 3). It counts as in vivo, Rhesus monkeys. An excerpt:
However, rapamycin administration was discontinued on Day 30 post-transplant. A control group was only administered the daily rapamycin.

In data set [2] the test system is regulatory T cells (Tregs). As to the kind of experiment: Immunomodulatory effect (Treg expansion) in naïve Rhesus monkeys, flow cytometry. The class given is in vivo. As for the experimental part:
An exemplary alpha-biased IL-2 variant fused to an Fc domain of human IgG1 was prepared with a full length sequence according to SEQ ID NO: 27. The immunomodulatory effect of the exemplary alpha-biased IL-2-Fc fusion protein was assessed in naïve Rhesus monkeys by a study outlined in FIG. 1A. […] Rapamycin was also administered daily from Day 0 by intramuscular injections, targeting a trough level of approximately 8-12 ng/mL. Treg populations (CD4^+CD25^+FoxP3^+ and CD4^+CD25^+CD127^lo) and other immune cell populations including CD3^+/CD8^+ cytotoxic T cells (CTL) were analyzed using flow cytometry.
In general terms: A flow cytometer gives signals particle by particle.

The subject of data set [3] is kidney allograft. The text has this: The effect of an exemplary alpha-biased IL-2-Fc fusion protein (SEQ ID NO: 27) on prolonged kidney allograft survival following transplant was studied in naïve Rhesus monkeys, as outlined in FIG. 1B. For the kidney transplant, animals were paired with ABO-compatible donors and mismatched for MHC haplotype of class I loci while allowing 1 or 2 MHC II haplotype matching. This degree of MHC mismatch is known to elicit a robust graft rejection and sensitization.
The alpha-biased IL-2-Fc fusion protein was administered subcutaneously at a dose of 50 μg/kg both pre- and post-transplant on Days −6, 1, 15, and 29. The kidney transplant was performed on Day 0, and rapamycin was administered daily by intramuscular injection, targeting a trough concentration of approximately 8-12 ng/mL. Rapamycin administration was discontinued on Day […] post-transplant. As a control, five monkeys were only administered the daily rapamycin. Kidney allograft biopsies were performed at 1-month and 3-months post-transplant. Blood samples were collected regularly, and samples were either analyzed at ambient temperature or frozen and stored.

“Also recorded” adds a separate entry of the source.

As for `CO[C@H]1C[C@@H]2CC[C@@H](C)[C@@](O)(O2)C(=O)C(=O)N2CCCC[C@H]2C(=O)O[C@H]([C@H](C)C[C@@H]2CC[C@@H](O)[C@H](OC)C2)CC(=O)[C@H](C)/C=C(\C)[C@@H](O)[C@@H](OC)C(=O)[C@H](C)C[C@H](C)/C=C/C=C/C=C/1C` [rapamycin, reference compound], the “time to termination post-transplant (increases in sCR and BUN or excessive weight loss)” value in the data set with kidney allograft [1] (control group, daily rapamycin only, FIG. 10B) is “less than 30 days”.
Regarding “alpha-biased IL-2-Fc fusion protein: IL2 Variant (H16L/V69A/Q74P/C125S) fused to IgG1 Fc (N297G) allotype m3; full length sequence SEQ ID NO: 27”, the “percent of Tregs (CD4+CD25+FoxP3+)” value in data set [2] (5-7 days after administration, increased from 6.21% pre-treatment, s.c. 50 or 100 μg/kg with daily rapamycin, FIG. 2A) amounted to 38.5%. Also, the “tachyphylaxis of Treg number and percent on repeated dosing” value in data set [2] (FIGS. 3A and 3B, after each dose) is “without signs of tachyphylaxis”. In data set [2] (over the course of treatment), the “cytotoxic T cells (CTLs) during the increase in Tregs” value is listed as “did not coincide with an increase”. In data set [2] (over the course of treatment, 50 or 100 μg/kg, FIG. 2B), the “ratio of Tregs:CD8 cells” value is given as “significantly increased in a dose-dependent manner”. Further, the “absolute number of Tregs” value in data set [2] (over the course of treatment, s.c. Days 0, 14, 28 at 50 or 100 μg/kg, daily rapamycin, FIG. 2B) is “significantly increased in a dose-dependent manner; also recorded: statistically significant and dose dependent”. Also, the “survival post-transplant, one Rhesus monkey” value with kidney allograft [3] (50 μg/kg plus daily rapamycin until Day 180, longest surviving monkey) is given as 235 days. In the data set with kidney allograft [3] (50 μg/kg plus daily rapamycin, at least three of four monkeys), the “kidney graft survival, at least three of four Rhesus monkeys” value was “over 50 days”. The “time creatinine and BUN / transplanted kidney stable post-transplant, some cases” value with kidney allograft [3] (50 μg/kg s.c. Days −6, 1, 15, 29 plus daily rapamycin until Day 180, some cases) is given as “over 235 days”. The “time creatinine and blood urea nitrogen (BUN) stable post-transplant, most cases” value in the data set on kidney allograft [3] (50 μg/kg s.c. Days −6, 1, 15, 29 plus daily rapamycin, most cases, FIGS. 4A, 4B) was “over 50 days”. Besides, in the data set on kidney allograft [3] (after administration, post-transplant, FIG. 8), the “Tregs (FoxP3+ CD4+ and CD127lo CD4+) in PBMCs” value is “increase in both percent and number”. In addition, the “CD20+ B cells” value in the data set on kidney allograft [3] (after kidney transplant, FIG. 5) is given as “decrease”. For the same compound, the “histopathology of monkey terminated early for excessive body weight loss” value in the data set with kidney allograft [3] (one monkey of the fusion protein group) was “did not indicate kidney rejection”. For the same compound, in the data set with kidney allograft [3] (rhesus monkey, in vivo), the “blood chemistry parameters (ALT, ALP, GGT, bilirubin, protein, albumin, globulin, cholesterol, phosphate, calcium, glucose, sodium, potassium, chloride)” value is reported as “fell within the expected range” and the “hematology parameters (hemoglobin, hematocrit, blood cell counts)” value is given as “normally fell within their expected ranges”. Further, the “time sCR and BUN levels stable post-transplant, most cases” value in the data set on kidney allograft [1] (50 μg/kg s.c. Days −6, 1, 15, 29 plus daily rapamycin until Day 30, most cases, FIG. 10A) is on record as “at least 40 days”. Also, in the data set with kidney allograft [1] (rapamycin discontinued Day 30, some cases), the “time sCR and BUN levels stable post-transplant, some cases” value is at least 110 days. Moreover, in the data set on kidney allograft [1] (some cases), the “time sCR and BUN levels stable following complete withdrawal of immunosuppressive drugs” value is on record as “up to 82 days”.
